Laboratory results published in US5885767A (BioCatalytics, Inc., priority 1998, dated 1999).
Like-named read-outs stand apart in the source and are kept apart here.

How the values were obtained:
[1] = biological target: T1, methionine gamma-lyase from Pseudomonas putida ICR 3460 (Pseudomonas putida, UniProt P13254); set-up: methionine gamma-lyase purified from Pseudomonas putida ICR 3460; host or cells: Pseudomonas putida ICR 3460 (enzyme purified from the organism itself); details: cited from earlier work; for Vmax as a substrate for methionine gamma-lyase: maximum velocity at saturating substrate concentrations; for Km / Vmax: purified enzyme from Pseudomonas putida ICR 3460
T1 sequence (P13254 1-398): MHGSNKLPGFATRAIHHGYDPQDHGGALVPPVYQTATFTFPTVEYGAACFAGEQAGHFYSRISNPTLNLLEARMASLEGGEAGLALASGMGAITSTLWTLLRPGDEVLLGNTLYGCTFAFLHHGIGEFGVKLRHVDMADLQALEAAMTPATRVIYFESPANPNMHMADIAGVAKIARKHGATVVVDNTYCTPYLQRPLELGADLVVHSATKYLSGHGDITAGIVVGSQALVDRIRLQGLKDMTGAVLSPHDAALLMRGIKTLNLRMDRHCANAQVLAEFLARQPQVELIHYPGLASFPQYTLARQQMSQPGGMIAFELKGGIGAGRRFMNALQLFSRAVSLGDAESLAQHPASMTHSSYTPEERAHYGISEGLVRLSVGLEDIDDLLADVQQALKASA

methionine gamma-lyase = biological target: T2, methionine gamma-lyase (Pseudomonas putida, UniProt P13254); details: cited from earlier work; for inhibition of methionine gamma-lyase (in words): at concentrations between 0.1 mM and 10 mM
T2 sequence (P13254 1-398): T1 sequence (P13254 1-398)

[2] = biological target: T1, methionine gamma-lyase from Pseudomonas putida ICR 3460
Protocol: The 2-ketobutyrate produced in the reaction is quantitated by reaction with lactic dehydrogenase and NADH, and the rate of decrease in the absorbance at 340 nm is monitored.
Stock solutions for the coupled spectrophotometric assay are prepared as follows:
Potassiumphosphate buffer, 100 mM, pH 8.0 containing 0.01 mM pyridoxal 5'-phosphate
NADH in deionized water, 5 mg/ml
Lactate dehydrogenase, crystalline suspension from rabbit muscle in 3.2M ammonium sulfate containing 9.6 mg protein/ml, with a specific activity of 800-1200 units per milligram (Sigma)
The assay mixture is prepared as follows:
A background reading of the absorbance at 340 nm was made. Enzyme solution (10 microliters, appropriately diluted to produce a change of absorbance at 340 nm between 0.1 and 1 absorbance unit per minute) is then added, and the rate of decrease in the absorbance at 340 nm is measured using a spectrophotometer.
One unit of methionine gamma-lyase activity is that amount of enzyme that causes the oxidation of 1 micromole of NADH per minute at room temperature under the assay conditions described above.

SMILES | activity as a substrate of methionine gamma-lyase (in words) [1] | inhibition of methionine gamma-lyase (in words) (methionine gamma-lyase) | inhibition of methionine gamma-lyase by thiol compounds (in words) (methionine gamma-lyase) | other results
C[C@@H](O)[C@H](N)C(=O)O [L-Threonine] | either very poor substrates or do not react at all | Nor do these amino acids inhibit methionine gamma-lyase appreciably |  | 
N[C@@H](CS)C(=O)O [L-cysteine] | low activity |  |  | 
N[C@@H](CCS)C(=O)O [L-homocysteine] | excellent substrates |  |  | Vmax as a substrate for methionine gamma-lyase [1]: 36 micromoles per minute per milligram of pure protein; Km [1]: ≤ 1000 µM; Vmax [1]: 36 µmol/min/mg; Km ([1]; listed as L-Homocysteine): 430 µM; activity of the purified methionine gamma-lyase ([2]; L-homocysteine as substrate at a concentration of 2.5 mM): approximately 36 units per milligram
N[C@@H](CCO)C(=O)O [L-homoserine] | either very poor substrates or do not react at all | Nor do these amino acids inhibit methionine gamma-lyase appreciably |  | 
CSCC[C@H](N)C(=O)O [L-methionine] | excellent substrates |  |  | Vmax as a substrate for methionine gamma-lyase [1]: about 20 micromoles per minute per milligram of pure protein; Km [1]: ≤ 1000 µM; Vmax [1]: 20.4 µmol/min/mg; Km ([1]; listed as L-Methionine): 1000 µM; specific activity of purified methionine gamma-lyase ([2]; L-methionine as substrate, room temperature, pH 8.0, 1 unit = 1 micromole NADH oxidized per minute): approximately 20 units per milligram
N[C@@H](CO)C(=O)O [L-serine] | either very poor substrates or do not react at all | Nor do these amino acids inhibit methionine gamma-lyase appreciably |  | 
N[C@@H](Cc1c[nH]c2ccccc12)C(=O)O [L-tryptophan] | either very poor substrates or do not react at all | Nor do these amino acids inhibit methionine gamma-lyase appreciably |  | 
N[C@@H](Cc1ccc(O)cc1)C(=O)O [L-tyrosine] | either very poor substrates or do not react at all | Nor do these amino acids inhibit methionine gamma-lyase appreciably |  | 
O[C@H](CS)[C@@H](O)CS [dithioerythritol] | not acted on by the enzyme |  | nor do they inhibit the enzyme | 
O[C@H](CS)[C@H](O)CS [dithiothreitol] | not acted on by the enzyme |  | nor do they inhibit the enzyme | 
CC(=O)S [thioacetic acid] | not acted on by the enzyme |  | nor do they inhibit the enzyme | 
OCCS [β-mercaptoethanol] | not acted on by the enzyme |  | nor do they inhibit the enzyme | 
